Among the data in patent publication US11370784B2 (MISSION THERAPEUTICS LIMITED, priority 2016, dated 2022) are IC50 values, retold here.

Structures are written as SMILES.

What is called IC50 is the concentration that gives 50% inhibition.

USP30, sequence (Q70CQ3 57-517): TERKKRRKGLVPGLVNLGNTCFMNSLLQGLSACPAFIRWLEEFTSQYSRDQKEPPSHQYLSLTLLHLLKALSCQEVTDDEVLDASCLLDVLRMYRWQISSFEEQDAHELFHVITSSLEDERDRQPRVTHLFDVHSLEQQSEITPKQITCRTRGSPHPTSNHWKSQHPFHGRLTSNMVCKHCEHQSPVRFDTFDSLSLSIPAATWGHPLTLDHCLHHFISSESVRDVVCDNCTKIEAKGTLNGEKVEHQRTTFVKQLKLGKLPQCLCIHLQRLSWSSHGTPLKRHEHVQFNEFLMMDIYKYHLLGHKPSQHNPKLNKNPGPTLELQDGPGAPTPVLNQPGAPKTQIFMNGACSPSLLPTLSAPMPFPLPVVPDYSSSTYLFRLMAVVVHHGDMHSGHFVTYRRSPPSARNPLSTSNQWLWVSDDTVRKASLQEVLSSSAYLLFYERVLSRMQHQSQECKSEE

This assay addresses USP30 (Homo sapiens (Human), UniProt Q70CQ3). The experiment in a line: USP30 biochemical IC50 assay. Conditions: fluorescence polarisation, TAMRA labelled peptide linked to ubiquitin as substrate; enzyme and compound incubated 30 min at room temp; read-out: IC50 range. The procedure:
Reactions were performed in duplicate in black 384 well plates (small volume, Greiner 784076) in a final reaction volume of 21 μl. Either 1 μl of 50% DMSO or diluted compound was added to the plate. USP30 was diluted in reaction buffer (40 mM Tris, pH 7.5, 0.005% Tween 20, 0.5 mg/ml BSA, 5 mM beta-mercaptoethanol) to the equivalent of 0.05 μl/well and 10 μl of diluted USP30 was added to the compound. Enzyme and compound were incubated for 30 min at room temp. Reactions were initiated by the addition of 50 nM of TAMRA labelled peptide linked to ubiquitin via an iso-peptide bond as fluorescence polarisation substrate. Reactions were read immediately after addition of substrate and following a 2 h incubation at room temperature. Readings were performed on a Pherastar Plus (BMG Labtech). λ Excitation 540 nm; λ Emission 590 nm.
Background: Polarisation of emitted light reports the rotation of a fluorescent probe.
As for `N#CN1CCCC(F)(C(=O)Nc2nc3ccc(-c4cn[nH]c4)cc3s2)C1` (stereo not drawn) [Example 50, N-(6-(1H-Pyrazol-4-yl)benzo[d]thiazol-2-yl)-1-cyano-3-fluoropiperidine-3-carboxamide], the IC50 lay in the range of 1 to 10 µM.

For the compound `N#CN1CCO[C@@H](C(=O)Nc2cc(-c3cccc(C(F)(F)F)c3)no2)C1` [Example 51, (R)-4-Cyano-N-(3-(3-(trifluoromethyl)phenyl)isoxazol-5-yl)morpholine-2-carboxamide], the IC50 was 0.1 to 1 µM.

With `N#Cc1cccc(-c2ccnc(NC(=O)[C@@]3(F)CCCN(C#N)C3)c2)c1` [Example 52, (R)-1-Cyano-N-(4-(3-cyanophenyl)pyridin-2-yl)-3-fluoropiperidine-3-carboxamide], the IC50 was in the range of 0.1 to 1 µM.

Consider `N#Cc1cccc(-c2ccnc(NC(=O)[C@H]3CN(C#N)CCO3)c2)c1` [Example 53, (R)-4-Cyano-N-(4-(3-cyanophenyl)pyridin-2-yl)morpholine-2-carboxamide], for which the IC50 was less than 0.1 µM.

Take `N#Cc1cccc(-c2ccnc(NC(=O)[C@@H]3CN(C#N)CCO3)c2)c1` [Example 54, (S)-4-Cyano-N-(4-(3-cyanophenyl)pyridin-2-yl)morpholine-2-carboxamide]: the IC50 lay in the range of 1 to 10 µM. With `N#CN1CCC[C@H](C(=O)Nc2ncc(-c3ccccc3)s2)C1` [Example 56, (S)-1-Cyano-N-(5-phenylthiazol-2-yl)piperidine-3-carboxamide] the figure was 1 to 10 µM. Take `N#Cc1cccc(-c2ccnc(NC(=O)[C@H]3CCCN(C#N)C3)c2)c1` [Example 57, (S)-1-Cyano-N-(4-(3-cyanophenyl)pyridin-2-yl)piperidine-3-carboxamide]: the IC50 was 1 to 10 µM. In the case of `N#CN1CC(C(=O)Nc2nc3ccc(-c4cn[nH]c4)cc3s2)CC(F)(F)C1` (stereo not drawn) [Example 59, N-(6-(1H-Pyrazol-4-yl)benzo[d]thiazol-2-yl)-1-cyano-5,5-difluoropiperidine-3-carboxamide] it was 1 to 10 µM.

Take `N#CN1CCO[C@@H](C(=O)Nc2cc(-c3cccc(Cl)c3)cnn2)C1` [Example 62, (R)—N-(5-(3-Chlorophenyl)pyridazin-3-yl)-4-cyanomorpholine-2-carboxamide]: the IC50 is 0.1 to 1 µM. In the case of `N#Cc1cccc(-c2cc(NC(=O)C3(F)CCCN(C#N)C3)no2)c1` (stereo not drawn) [Example 64, 1-Cyano-N-(5-(3-cyanophenyl)isoxazol-3-yl)-3-fluoropiperidine-3-carboxamide] it was 0.1 to 1 µM; in that of `N#Cc1ccc2cnc(NC(=O)[C@H]3CN(C#N)CCO3)cc2c1` [Example 65, (R)-4-Cyano-N-(6-cyanoisoquinolin-3-yl)morpholine-2-carboxamide], 1 to 10 µM; in that of `N#Cc1ccnc(N2CCC(NC(=O)[C@H]3CN(C#N)CCO3)C2)c1` (stereo partly drawn) [Example 66, (2R)-4-Cyano-N-(1-(4-cyanopyridin-2-yl)pyrrolidin-3-yl)morpholine-2-carboxamide], 1 to 10 µM. As for `CN1CCN(C#N)C[C@@H]1C(=O)Nc1ncc(-c2ccccc2)s1` [Example 68], the IC50 lay in the range of 1 to 10 µM. On to `CS(=O)(=O)N1CCN(C#N)CC1C(=O)Nc1ncc(-c2ccccc2)s1` (stereo not drawn) [Example 71, 4-Cyano-1-(methylsulfonyl)-N-(5-phenylthiazol-2-yl)piperazine-2-carboxamide], for which the IC50 was in the range of 1 to 10 µM. With `N#CN1CCC[C@](F)(C(=O)Nc2ccc(-c3ccn[nH]3)cn2)C1` [Example 72, (R)—N-(5-(1H-Pyrazol-5-yl)pyridin-2-yl)-1-cyano-3-fluoropiperidine-3-carboxamide], the IC50 lay within 0.1 to 1 µM. In the case of `N#Cc1cccc(-c2cc(NC(=O)C3(F)CCCN(C#N)C3)on2)c1` (stereo not drawn) [Example 73, 1-Cyano-N-(3-(3-cyanophenyl)isoxazol-5-yl)-3-fluoropiperidine-3-carboxamide] it was 0.1 to 1 µM. In the case of `N#CN1CCC[C@](F)(C(=O)Nc2cc(-c3cccc(Cl)c3)on2)C1` [Example 74, (R)—N-(5-(3-Chlorophenyl)isoxazol-3-yl)-1-cyano-3-fluoropiperidine-3-carboxamide] it was less than 0.1 µM. With `N#CN1CCC[C@](F)(C(=O)Nc2cc(-c3cccc(Cl)c3)no2)C1` [Example 76, (R)—N-(3-(3-Chlorophenyl)isoxazol-5-yl)-1-cyano-3-fluoropiperidine-3-carboxamide] the figure was less than 0.1 µM; with `N#CN1CCC[C@](F)(C(=O)Nc2ccc(-n3cccn3)cn2)C1` [Example 77, (R)—N-(5-(1H-Pyrazol-1-yl)pyridin-2-yl)-1-cyano-3-fluoropiperidine-3-carboxamide], 0.1 to 1 µM. With `N#Cc1cccc(-n2cnc(NC(=O)[C@@]3(F)CCCN(C#N)C3)c2)c1` [Example 79, (R)-1-Cyano-N-(1-(3-cyanophenyl)-1H-imidazol-4-yl)-3-fluoropiperidine-3-carboxamide], the IC50 fell in the range of 0.1 to 1 µM. With `N#Cc1cccc(-n2cc(NC(=O)[C@@]3(F)CCCN(C#N)C3)nn2)c1` [Example 82, (R)-1-Cyano-N-(1-(3-cyanophenyl)-1H-1,2,3-triazol-4-yl)-3-fluoropiperidine-3-carboxamide] the figure was 0.1 to 1 µM; with `N#Cc1cccc(-n2cnc(NC(=O)[C@@]3(F)CCCN(C#N)C3)n2)c1` [Example 83, (R)-1-Cyano-N-(1-(3-cyanophenyl)-1H-1,2,4-triazol-3-yl)-3-fluoropiperidine-3-carboxamide], 0.1 to 1 µM.

Consider `N#CN1CCC[C@](F)(C(=O)Nc2ccc(-c3cccc4cn[nH]c34)cn2)C1` [Example 84, (R)—N-(5-(1H-Indazol-7-yl)pyridin-2-yl)-1-cyano-3-fluoropiperidine-3-carboxamide], for which the IC50 is less than 0.1 µM. As for `N#CN1CCC[C@](F)(C(=O)Nc2ccc(-c3cccc4[nH]ncc34)cn2)C1` [Example 85, (R)—N-(5-(1H-Indazol-4-yl)pyridin-2-yl)-1-cyano-3-fluoropiperidine-3-carboxamide], the IC50 was less than 0.1 µM. In the case of `N#CN1CCC[C@](F)(C(=O)Nc2cnc(-c3cccc4cn[nH]c34)cn2)C1` [Example 86, (R)—N-(5-(1H-Indazol-7-yl)pyrazin-2-yl)-1-cyano-3-fluoropiperidine-3-carboxamide] it was less than 0.1 µM; in that of `N#CN1CCC[C@](F)(C(=O)Nc2cnc(-c3cccc4[nH]ncc34)cn2)C1` [Example 87, (R)—N-(5-(1H-Indazol-4-yl)pyrazin-2-yl)-1-cyano-3-fluoropiperidine-3-carboxamide], less than 0.1 µM; in that of `N#CN1CCC[C@](F)(C(=O)Nc2ccc(-c3cccc4cn[nH]c34)nn2)C1` [Example 88, (R)—N-(6-(1H-indazol-7-yl)pyridazin-3-yl)-1-cyano-3-fluoropiperidine-3-carboxamide], less than 0.1 µM. In the case of `N#CN1CCC[C@](F)(C(=O)Nc2ccc(-c3nccc4cn[nH]c34)cn2)C1` [Example 89, (R)—N-(5-(1H-Pyrazolo[3,4-c]pyridin-7-yl)pyridin-2-yl)-1-cyano-3-fluoropiperidine-3-carboxamide] it was less than 0.1 µM; in that of `N#CN1CCC[C@](F)(C(=O)Nc2ccc(-c3cccc4[nH]ncc34)nn2)C1` [Example 91, (R)—N-(6-(1H-Indazol-4-yl)pyridazin-3-yl)-1-cyano-3-fluoropiperidine-3-carboxamide], less than 0.1 µM; in that of `N#CN1CCC[C@](F)(C(=O)Nc2ncc(-c3cccc4cn[nH]c34)cn2)C1` [Example 92, (R)—N-(5-(1H-Indazol-7-yl)pyrimidin-2-yl)-1-cyano-3-fluoropiperidine-3-carboxamide], less than 0.1 µM.
